Results published in patent publication US20260209250A1, “CRYSTAL FORM OF KRAS G12D INHIBITOR AND PREPARATION METHOD THEREFOR” (priority 2022, published 2026).

Columns and labels:
[1] = Crystal form stability study (influencing factor experiments); assay type: physicochemical; conditions: for Physical and chemical properties (conclusion of influencing factor experiments): high temperatures and high humidities for 30 days
Protocol: Samples of the crystal forms A, B, C, I, J, and K of the compound represented by formula (I) were taken, spread in open containers, and left to stand under conditions of light exposure (4500 Lux), high temperatures (40° C. and 60° C.), and high humidities (RH 75% and RH 92.5%) for 30 days to investigate their stability, and the results are shown in Table 16.

[2] = Long-term/accelerated stability; assay type: physicochemical
[3] = 40° C., 10 days, open container
[4] = 40° C., 30 days, open container
[5] = 60° C., 10 days, open container
[6] = 60° C., 30 days, open container
[7] = 75% RH, 10 days, open container
[8] = 75% RH, 30 days, open container
[9] = 92.5% RH, 5 days, open container
[10] = 92.5% RH, 10 days, open container
[11] = 92.5% RH, 30 days, open container
[12] = light exposure (4500 Lux), 5 days, open container
[13] = light exposure (4500 Lux), 10 days, open container
[14] = light exposure (4500 Lux), 30 days, open container

For `CCc1c(F)ccc2cc(O)cc(-c3nc4c5c(nc(OC[C@@]67CCCN6C[C@H](F)C7)nc5c3F)N3C[C@H]5CC[C@H](N5)[C@H]3CO4)c12` [Crystal form J, 5-Ethyl-6-fluoro-4-((5aS,6S,9R)-1-fluoro-12-(((2R,7aS)-2-fluorotetrahydro-1H-pyrrolizin-7a(5H)-yl)methoxy)-5a,6,7,8,9,10-hexahydro-5H-4-oxa-3,10a,11,13,14-pentaaza-6,9-methanonaphtho[1,8-ab]heptalen-2-yl)naphthalen-2-ol], the Color and state ([1]; 40° C., 5 days, open container) was “Off-white solid”, the Crystal form ([1]; 40° C., 5 days, open container) was “Did not change” and the Purity % ([1]; 40° C., 5 days, open container) was 99.2%. For the same compound, the Color and state [1, 3] was “Off-white solid”, the Crystal form [1, 3] was “Did not change” and the Purity % [1, 3] was 98.8%. The Color and state [1, 4] was “Off-white solid”, the Crystal form [1, 4] was “Did not change” and the Purity % [1, 4] was 97.9%. For the same compound, the Color and state ([1]; 60° C., 5 days, open container) was “Off-white solid”, the Crystal form ([1]; 60° C., 5 days, open container) was “Did not change” and the Purity % ([1]; 60° C., 5 days, open container) was 99.1%. The Color and state [1, 5] was “Off-white solid”, the Crystal form [1, 5] was “Did not change” and the Purity % [1, 5] was 98.5%. The Color and state [1, 6] was “Off-white solid”, the Crystal form [1, 6] was “Did not change” and the Purity % [1, 6] was 97.4%. For the same compound, the Color and state ([1]; 75% RH, 5 days, open container) was “Off-white solid”, the Crystal form ([1]; 75% RH, 5 days, open container) was “Did not change” and the Purity % ([1]; 75% RH, 5 days, open container) was 99.6%. For the same compound, the Color and state [1, 7] was “Off-white solid”, the Crystal form [1, 7] was “Did not change” and the Purity % [1, 7] was 99.6%. For the same compound, the Color and state [1, 8] was “Off-white solid”, the Crystal form [1, 8] was “Did not change” and the Purity % [1, 8] was 99.5%. The Color and state [1, 9] was “Off-white solid”, the Crystal form [1, 9] was “Did not change” and the Purity % [1, 9] was 99.6%. The Color and state [1, 10] was “Off-white solid”, the Crystal form [1, 10] was “Did not change” and the Purity % [1, 10] was 99.5%. The Color and state [1, 11] was “Off-white solid”, the Crystal form [1, 11] was “Did not change” and the Purity % [1, 11] was 99.5%. For the same compound, the Color and state ([1]; Initial, 0 days) was “Off-white solid”, the Crystal form ([1]; Initial, 0 days) was “Crystal form J” and the Purity % ([1]; Initial, 0 days) was 99.6%. The “Physical and chemical properties (conclusion of influencing factor experiments)” value [1] was “good physical and chemical properties”, the Color and state [1, 12] was “Off-white solid” and the Crystal form [1, 12] was “Did not change”. For the same compound, the Purity % [1, 12] was 98.1%, the Color and state [1, 13] was “Pale yellow solid” and the Crystal form [1, 13] was “Did not change”. The Purity % [1, 13] was 95.5%, the Color and state [1, 14] was “Pale yellow solid” and the Crystal form [1, 14] was “Did not change”. For the same compound, the Purity % [1, 14] was 93.0%, the “Purity % 1 month” value ([2]; 25° C./60% RH) was 99.5% and the “Purity % 2 months” value ([2]; 25° C./60% RH) was 99.6%. For the same compound, the “Purity % 3 months” value ([2]; 25° C./60% RH) was 99.6%, the “Purity % Initial” value ([2]; 25° C./60% RH) was 99.6% and the “Purity % 1 month” value ([2]; 40° C./75% RH) was 99.4%. The “Purity % 2 months” value ([2]; 40° C./75% RH) was 99.3%, the “Purity % 3 months” value ([2]; 40° C./75% RH) was 99.2% and the “Purity % Initial” value ([2]; 40° C./75% RH) was 99.6%.
In the case of `CCc1c(F)ccc2cc(O)cc(-c3nc4c5c(nc(OC[C@@]67CCCN6C[C@H](F)C7)nc5c3F)N3C[C@H]5CC[C@H](N5)[C@H]3CO4)c12` [Crystal form I, 5-Ethyl-6-fluoro-4-((5aS,6S,9R)-1-fluoro-12-(((2R,7aS)-2-fluorotetrahydro-1H-pyrrolizin-7a(5H)-yl)methoxy)-5a,6,7,8,9,10-hexahydro-5H-4-oxa-3,10a,11,13,14-pentaaza-6,9-methanonaphtho[1,8-ab]heptalen-2-yl)naphthalen-2-ol], the Color and state ([1]; 40° C., 5 days, open container) is reported as “Off-white solid”, the Crystal form ([1]; 40° C., 5 days, open container) is reported as “Did not change” and the Purity % ([1]; 40° C., 5 days, open container) is reported as 99.6%. For the same compound, the Color and state [1, 3] was “Off-white solid”, the Crystal form [1, 3] was “Did not change” and the Purity % [1, 3] was 99.4%. For the same compound, the Color and state [1, 4] was “Off-white solid”, the Crystal form [1, 4] was “Did not change” and the Purity % [1, 4] was 99.3%. For the same compound, the Color and state ([1]; 60° C., 5 days, open container) was “Off-white solid”, the Crystal form ([1]; 60° C., 5 days, open container) was “Did not change” and the Purity % ([1]; 60° C., 5 days, open container) was 99.6%. The Color and state [1, 5] was “Off-white solid”, the Crystal form [1, 5] was “Did not change” and the Purity % [1, 5] was 99.4%. The Color and state [1, 6] was “Off-white solid”, the Crystal form [1, 6] was “Did not change” and the Purity % [1, 6] was 99.3%. The Color and state ([1]; 75% RH, 5 days, open container) was “Off-white solid”, the Crystal form ([1]; 75% RH, 5 days, open container) was “Did not change” and the Purity % ([1]; 75% RH, 5 days, open container) was 99.6%. The Color and state [1, 7] was “Off-white solid”, the Crystal form [1, 7] was “Did not change” and the Purity % [1, 7] was 99.6%. The Color and state [1, 8] was “Off-white solid”, the Crystal form [1, 8] was “Did not change” and the Purity % [1, 8] was 99.6%. For the same compound, the Color and state [1, 9] was “Off-white solid”, the Crystal form [1, 9] was “Did not change” and the Purity % [1, 9] was 99.5%. For the same compound, the Color and state [1, 10] was “Off-white solid”, the Crystal form [1, 10] was “Did not change” and the Purity % [1, 10] was 99.5%. For the same compound, the Color and state [1, 11] was “Off-white solid”, the Crystal form [1, 11] was “Did not change” and the Purity % [1, 11] was 99.6%. The Color and state ([1]; Initial, 0 days) was “Off-white solid”, the Crystal form ([1]; Initial, 0 days) was “Crystal form I” and the Purity % ([1]; Initial, 0 days) was 99.6%. The “Physical and chemical properties (conclusion of influencing factor experiments)” value [1] was “good physical and chemical properties”, the Color and state [1, 12] was “Off-white solid” and the Crystal form [1, 12] was “Did not change”. The Purity % [1, 12] was 99.6%, the Color and state [1, 13] was “Off-white solid” and the Crystal form [1, 13] was “Did not change”. For the same compound, the Purity % [1, 13] was 99.5%, the Color and state [1, 14] was “Off-white solid” and the Crystal form [1, 14] was “Did not change”. For the same compound, the Purity % [1, 14] was 99.2%, the “Purity % 1 month” value ([2]; 25° C./60% RH) was 99.6% and the “Purity % 2 months” value ([2]; 25° C./60% RH) was 99.6%. The “Purity % 3 months” value ([2]; 25° C./60% RH) was 99.6%, the “Purity % Initial” value ([2]; 25° C./60% RH) was 99.6% and the “Purity % 1 month” value ([2]; 40° C./75% RH) was 99.6%. For the same compound, the “Purity % 2 months” value ([2]; 40° C./75% RH) was 99.4%, the “Purity % 3 months” value ([2]; 40° C./75% RH) was 99.6% and the “Purity % Initial” value ([2]; 40° C./75% RH) was 99.6%.
